Values of other authors in patent US20250152503A1, “IMPLANTABLE DEVICES FOR THE SUSTAINED DELIVERY OF AN OPIOID ANTAGONIST AND METHODS FOR TREATING INFLAMMATORY, NEUROINFLAMMATORY AND METABOLIC DISORDERS” (Delpor, Inc., priority 2022, published 2025).

Assays:
[1] = target: Toll-like receptor 4 (TLR4) (Homo sapiens, UniProt O00206+Q9Y6Y9)
[2] = 25° C.
[3] = oral, typical dose 50 mg/day

Chain of Toll-like receptor 4 (TLR4) (O00206 24-839, species assumed): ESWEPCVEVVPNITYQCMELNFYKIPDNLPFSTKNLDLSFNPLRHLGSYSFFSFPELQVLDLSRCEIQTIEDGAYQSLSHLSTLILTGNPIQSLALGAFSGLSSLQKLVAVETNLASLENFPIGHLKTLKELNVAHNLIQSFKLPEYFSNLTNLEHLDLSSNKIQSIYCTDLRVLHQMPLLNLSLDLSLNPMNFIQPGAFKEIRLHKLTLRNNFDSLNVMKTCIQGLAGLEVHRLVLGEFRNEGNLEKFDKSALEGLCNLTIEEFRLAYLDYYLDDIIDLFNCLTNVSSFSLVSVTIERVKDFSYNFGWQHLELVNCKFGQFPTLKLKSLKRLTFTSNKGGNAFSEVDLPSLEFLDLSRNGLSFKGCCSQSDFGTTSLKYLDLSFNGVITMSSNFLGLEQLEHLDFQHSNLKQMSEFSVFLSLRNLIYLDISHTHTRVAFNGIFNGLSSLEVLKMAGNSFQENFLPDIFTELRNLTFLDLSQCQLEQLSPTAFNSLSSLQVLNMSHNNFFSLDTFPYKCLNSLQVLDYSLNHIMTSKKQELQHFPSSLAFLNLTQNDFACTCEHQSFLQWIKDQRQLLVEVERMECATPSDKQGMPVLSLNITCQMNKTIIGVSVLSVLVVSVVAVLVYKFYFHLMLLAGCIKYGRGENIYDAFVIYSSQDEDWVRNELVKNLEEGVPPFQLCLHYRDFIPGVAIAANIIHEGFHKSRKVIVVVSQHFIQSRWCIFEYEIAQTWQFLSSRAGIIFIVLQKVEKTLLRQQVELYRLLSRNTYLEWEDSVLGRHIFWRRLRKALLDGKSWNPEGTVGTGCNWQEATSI
Chain of Toll-like receptor 4 (TLR4) (Q9Y6Y9 17-160 limits assumed, species assumed): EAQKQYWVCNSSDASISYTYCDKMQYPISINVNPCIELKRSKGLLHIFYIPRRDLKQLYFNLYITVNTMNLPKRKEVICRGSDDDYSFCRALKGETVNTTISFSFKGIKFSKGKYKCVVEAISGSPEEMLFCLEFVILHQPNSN

(−)-nalmefene
antagonism of TLR4 signaling [1]: antagonize TLR4 signaling

(−)-naltrexone
antagonism of TLR4 signaling [1]: antagonize TLR4 signaling

O=C1CC[C@@]2(O)[C@H]3Cc4ccc(O)c5c4[C@@]2(CCN3CC2CC2)[C@H]1O5 [naltrexone]
reported aqueous solubility [2]: 667 µg/mL | average bioavailability [3]: 5-40%

O=C1CC[C@]2(O)[C@@H]3Cc4ccc(O)c5c4[C@]2(CCN3CC2CC2)[C@@H]1O5 [(+)-naltrexone]
antagonism of TLR4 signaling [1]: antagonize TLR4 signaling

(−)-naloxone
antagonism of TLR4 signaling [1]: antagonize TLR4 signaling

C=CCN1CC[C@]23c4c5ccc(O)c4O[C@H]2C(=O)CC[C@]3(O)[C@H]1C5 [(+)-naloxone]
antagonism of TLR4 signaling [1]: antagonize TLR4 signaling

C=C1CC[C@@]2(O)[C@H]3Cc4ccc(O)c5c4[C@@]2(CCN3CC2CC2)[C@H]1O5 [nalmefene]
reported aqueous solubility [2]: 140 µg/mL
